This note sets out measurements from ChEMBL document CHEMBL1201862, “PubChem BioAssay data set” (2004).

Some test systems named below: KM-20L2; LOX IMVI; OVCAR-5; 786-0; SNB-75; SN12C; UACC-62; U-251; Malme-3M; HOP-62; A549; NCI-H23; SW-620; OVCAR-4; SK-OV-3; NCI-H460; IGROV-1; HT-29; NCI-H522; MDA-N.
Common to all, as to test: NCI anticancer screen, dose series, 48 h

Molecules are shown by their SMILES.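 Test compounds were applied to cells in 96-well plates for 48 hours at 5 doses. GI50 marks 50% less growth.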 Activity calls are given as the source filed them. Rule as the data show it: active = GI50 up to about 1.1 µM and inactive = higher. A value given as a limit tells only on which side of the number the result lay.

For the molecule `Cn1cc(NC(=O)c2cc(NC(=O)CCCCCCCC(=O)Nc3cc(C(=O)Nc4cc(C(=O)NCCC(=N)N)n(C)c4)n(C)c3)cn2C)cc1C(=O)NCCC(=N)N`, the GI50 in the experiment with KM-20L2 was > 100 µM (inactive); in the experiment on LOX IMVI, 15 µM (inactive); in the experiment with OVCAR-5, > 100 µM (inactive); with 786-0, 34 µM (inactive); with SNB-75 it was 35.2 µM (inactive); in the experiment with SN12C it was 12.6 µM (inactive). Also, the GI50 is 15.7 µM (inactive) in the experiment with UACC-62; 17.2 µM (inactive) with U-251; 5.75 µM (inactive) in the experiment on Malme-3M; > 100 µM (inactive) in the experiment with HOP-62; 13.9 µM (inactive) with A549; 17.3 µM (inactive) with NCI-H23. Moreover, the GI50 in the experiment with SW-620 was 32.7 µM (inactive); with OVCAR-4 it was 46.1 µM (inactive); in the experiment with SK-OV-3, > 100 µM (inactive); in the experiment with NCI-H460, 4.69 µM (inactive); with IGROV-1, 5.82 µM (inactive); in the experiment on HT-29 it was 63.1 µM (inactive).

`O=S(=O)(c1ccccc1)c1nccs1`: the GI50 in the experiment with KM-20L2, in the experiment with LOX IMVI, in the experiment on OVCAR-5, in the experiment on 786-0, with SNB-75 and with SN12C was > 100 µM (inactive) in each case. The GI50 in the experiment with UACC-62, with NCI-H522, with U-251, with HOP-62, with A549 and in the experiment on NCI-H23 was > 100 µM (inactive) throughout. Further, the GI50 with SW-620, in the experiment on OVCAR-4, with SK-OV-3, in the experiment with NCI-H460, with IGROV-1 and in the experiment on HT-29 was > 100 µM (inactive) each time.

As for `Cc1cccc(Cl)c1NC(N)=S`, the GI50 in the experiment with KM-20L2 is 50.8 µM (inactive); with OVCAR-5 it was 63.8 µM (inactive); in the experiment on 786-0 it was 20.2 µM (inactive); in the experiment with SNB-75, 47.1 µM (inactive); with SN12C, > 100 µM (inactive); in the experiment on UACC-62, 69.7 µM (inactive). The GI50 is 20.8 µM (inactive) with U-251; 52 µM (inactive) with Malme-3M; 50.8 µM (inactive) with HOP-62; 82.8 µM (inactive) in the experiment with A549; 83 µM (inactive) in the experiment with NCI-H23; 16.6 µM (inactive) with SW-620. Also, the GI50 in the experiment with OVCAR-4 was 50.9 µM (inactive); in the experiment with SK-OV-3, 44.4 µM (inactive); with NCI-H460, 51.3 µM (inactive); with IGROV-1 it was 35.4 µM (inactive); in the experiment with HT-29, 43.4 µM (inactive).

As for `O=C1N[C@@H]2CCCC[C@@H]2C12CCCCC2`, the GI50 in the experiment with KM-20L2, in the experiment with LOX IMVI, in the experiment with OVCAR-5, with 786-0, with SNB-75 and with SN12C was > 100 µM (inactive) each time. Further, the GI50 with UACC-62, in the experiment on U-251, in the experiment on Malme-3M, in the experiment with HOP-62, with A549 and with NCI-H23 was > 100 µM (inactive) each time. For the same molecule, the GI50 in the experiment on SW-620, in the experiment on OVCAR-4, in the experiment on SK-OV-3, in the experiment with NCI-H460, in the experiment with IGROV-1 and with HT-29 was > 100 µM (inactive) throughout.

Take `Clc1cc(Cl)cc(C2ON=C(c3ccccc3)N2C23CC4CC(CC(C4)C2)C3)c1` (centres undefined): the GI50 with LOX IMVI, in the experiment with OVCAR-5, in the experiment with 786-0, in the experiment on SNB-75, in the experiment on SN12C and in the experiment on UACC-62 was > 10 µM (inactive) each time. Also, the GI50 in the experiment with NCI-H522, in the experiment with U-251, in the experiment with Malme-3M, in the experiment with HOP-62, with A549 and in the experiment with NCI-H23 was > 10 µM (inactive) each time. Moreover, the GI50 in the experiment with SW-620, in the experiment on OVCAR-4, in the experiment on SK-OV-3, in the experiment on MDA-N, in the experiment with NCI-H460 and with IGROV-1 was > 10 µM (inactive) in each case. Further, the GI50 with HT-29 is > 10 µM (inactive).

For the molecule `CNS(=O)(=O)NNS(=O)(=O)c1ccc(C)cc1`, the GI50 in the experiment on KM-20L2, in the experiment on OVCAR-5, in the experiment with 786-0, in the experiment with SN12C, in the experiment on UACC-62 and in the experiment with NCI-H522 was > 100 µM (inactive) each time. In addition, the GI50 with Malme-3M, in the experiment on HOP-62, in the experiment with A549, in the experiment with NCI-H23, with SW-620 and in the experiment on OVCAR-4 was > 100 µM (inactive) each time. Further, the GI50 with SK-OV-3, in the experiment with NCI-H460, in the experiment with IGROV-1 and with HT-29 was > 100 µM (inactive) throughout.

Turning to `C#CCC[C@@H]1O[C@@]1(C)CC/C=C(\C)CC/C=C/C=O`, the GI50 in the experiment on KM-20L2 is 36.4 µM (inactive); in the experiment with LOX IMVI it was 18.4 µM (inactive); in the experiment on OVCAR-5 it was > 100 µM (inactive); in the experiment on 786-0 it was 73.5 µM (inactive); in the experiment on SNB-75 it was 42.6 µM (inactive); with SN12C, 30.3 µM (inactive). In addition, the GI50 with UACC-62 is 17.9 µM (inactive); with U-251, 22 µM (inactive); with Malme-3M, 20 µM (inactive); with HOP-62, > 100 µM (inactive); in the experiment with A549 it was 43.6 µM (inactive); in the experiment on NCI-H23, 29 µM (inactive). Moreover, the GI50 in the experiment with SW-620 was 23.3 µM (inactive); with SK-OV-3 it was > 100 µM (inactive); in the experiment on NCI-H460, 41.1 µM (inactive); with IGROV-1, 22.1 µM (inactive); with HT-29, 37.2 µM (inactive).

With `CN(C)CCC1(C2=CCCC2)CC/C(=C\c2ccc3c(c2)OCO3)C1=O` (centres undefined), the GI50 is 14.2 µM (inactive) in the experiment with KM-20L2; 15.8 µM (inactive) in the experiment with OVCAR-5; 14 µM (inactive) in the experiment with 786-0; 14.5 µM (inactive) in the experiment with SN12C; 21.5 µM (inactive) in the experiment on UACC-62; 15.6 µM (inactive) in the experiment with U-251. Besides, the GI50 in the experiment with Malme-3M was 15.6 µM (inactive); in the experiment on A549, 16 µM (inactive); in the experiment with NCI-H23, 18.4 µM (inactive); in the experiment on SW-620, 15.8 µM (inactive); with OVCAR-4, 13.5 µM (inactive); in the experiment on NCI-H460, 18.4 µM (inactive). The GI50 with IGROV-1 is > 10 µM (inactive); in the experiment with HT-29 it was 12.2 µM (inactive).

As for `CCCCC[C@@H]1OCO[C@@]2(C)/C=C(C)\C=C/C(=O)O[C@H]([C@@H](C)[C@@H](O)[C@H](C)[C@@]3(O)C[C@@H](O[C@H]4C[C@@H](O)[C@H](O)[C@@H](C)O4)[C@H](C)[C@@H](C)O3)[C@@H](OC)/C=C\C=C(\C)C[C@@H]1[C@@H]2O` (stereo in doubt), the GI50 was < 0.005 µM (active) with LOX IMVI; < 0.005 µM (active) with OVCAR-5; < 0.005 µM (active) in the experiment with 786-0; < 0.005 µM (active) in the experiment on SNB-75; 0.0231 µM (active) with SN12C; < 0.005 µM (active) in the experiment with UACC-62. The GI50 in the experiment on NCI-H522 was < 0.005 µM (active); in the experiment on U-251, < 0.005 µM (active); in the experiment with Malme-3M, < 0.005 µM (active); in the experiment with HOP-62, 0.0573 µM (active); in the experiment with A549, < 0.005 µM (active); in the experiment with NCI-H23, 0.5 µM (active). For the same molecule, the GI50 was < 0.005 µM (active) with SW-620; < 0.005 µM (active) with OVCAR-4; 1.35 µM (inactive) in the experiment on SK-OV-3; < 0.005 µM (active) in the experiment with MDA-N; < 0.005 µM (active) in the experiment with NCI-H460; < 0.005 µM (active) in the experiment on IGROV-1. Besides, the GI50 in the experiment with HT-29 was < 0.005 µM (active).

`Nc1nccc(-c2c[nH]c3cc(Br)ccc23)n1` [MERIDIANIN D]: the GI50 in the experiment on LOX IMVI was 25.3 µM (inactive); in the experiment on OVCAR-5, 17.5 µM (inactive); with 786-0 it was 21.5 µM (inactive); with SNB-75, 20.5 µM (inactive); with SN12C, 21.7 µM (inactive); in the experiment on UACC-62 it was 22 µM (inactive). In addition, the GI50 in the experiment with NCI-H522 is 17.7 µM (inactive); in the experiment with U-251, 30.8 µM (inactive); in the experiment on Malme-3M it was 34.8 µM (inactive); in the experiment on HOP-62, 30 µM (inactive); in the experiment on A549 it was 15.7 µM (inactive); in the experiment with NCI-H23 it was 25.2 µM (inactive). Besides, the GI50 was 33.3 µM (inactive) in the experiment on SW-620; 48.9 µM (inactive) in the experiment with OVCAR-4; 29.1 µM (inactive) with SK-OV-3; 21 µM (inactive) in the experiment on MDA-N; 30 µM (inactive) with NCI-H460; 23.7 µM (inactive) with IGROV-1. The GI50 in the experiment on HT-29 is 20.3 µM (inactive).

For the molecule `C[C@H]1CC[C@]2(NC1)O[C@H]1C[C@H]3[C@@H]4CC[C@H]5C[C@@H](O[C@@H]6O[C@H](CO)[C@H](O[C@@H]7O[C@H](CO)[C@@H](O)[C@H](O[C@@H]8OC[C@@H](O)[C@H](O)[C@H]8O)[C@H]7O[C@@H]7O[C@H](CO)[C@@H](O)[C@H](O)[C@H]7O)[C@H](O)[C@H]6O)CC[C@]5(C)[C@H]4CC[C@]3(C)[C@H]1[C@@H]2C` [TOMATINE], the GI50 with LOX IMVI was 2.17 µM (inactive); with OVCAR-5, 1.24 µM (inactive); in the experiment on 786-0, 1.29 µM (inactive); in the experiment on SNB-75 it was 1.86 µM (inactive); in the experiment on SN12C, 1.43 µM (inactive); in the experiment with UACC-62 it was 1.01 µM (active). Moreover, the GI50 was 1.62 µM (inactive) in the experiment on NCI-H522; 1.02 µM (active) with U-251; 0.605 µM (active) in the experiment with Malme-3M; 1.63 µM (inactive) in the experiment on HOP-62; 1.55 µM (inactive) in the experiment with A549; 1.65 µM (inactive) in the experiment with NCI-H23. The GI50 was 2.04 µM (inactive) in the experiment on SW-620; 1.39 µM (inactive) with OVCAR-4; 1.61 µM (inactive) in the experiment on SK-OV-3; 0.558 µM (active) with MDA-N; 2.18 µM (inactive) in the experiment with NCI-H460; 0.729 µM (active) in the experiment on IGROV-1. In addition, the GI50 in the experiment with HT-29 was 1.91 µM (inactive).
